This note sets out measurements from PMC9674830, “A glutamine-based single α-helix scaffold to target globular proteins” (Nature Communications, 2022).

One data set addresses T1, RAP74-CTD (Homo sapiens, UniProt P35269).
T1 construct: spanning residues 450-517; His6-MBP (with TEV site) (N, cleaved yes); made in house; host or cells: E. coli Rosetta (DE3)pLysS
T1 sequence (P35269 450-517): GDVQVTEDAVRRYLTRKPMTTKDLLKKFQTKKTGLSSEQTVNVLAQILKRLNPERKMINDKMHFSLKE
Kind of data set: NMR chemical shift perturbation titration of peptides into 15N RAP74-CTD (KD). The format is binding. Conditions: 298 K, pH 7.4; for Kd: 1H-15N BEST-TROSY CSP titration, 15N RAP74-CTD 50 μM, read-out: NMR-derived KD; for KD range in words: NMR CSP titration, RAP74-CTD 50 μM. Here is the method: Recombinant samples with ^15N isotope enrichment of the C-terminal domain of subunit 1 of the general transcription regulator TFIIF (RAP74-CTD), spanning residues 450-517, were obtained as described previously. A codon-optimized synthetic gene cloned in a pDONR221 vector was obtained from GeneArt (Thermo Fisher Scientific, Waltham, MA, USA) and subcloned into a pDEST-His6MBP vector obtained from Addgene. Rosetta (DE3)pLysS competent cells (Novagen, Merck KGaA, Darmstadt, Germany) were grown in MOPS medium with ^15NH4Cl as the only nitrogen source (310 K, induction at OD600 = 0.7, 1 mM IPTG, harvesting 3 h after induction). Soluble fractions of cell lysates from sonication in lysis buffer (50 mM Tris-HCl, 1 M NaCl, 10 mM imidazole, pH 8.0) were purified by IMAC, and fractions containing the His6MBP-TEV-RAP74-CTD fusion were dialyzed at 277 K overnight against cleavage buffer (50 mM Tris-HCl, 200 mM NaCl, 0.5 mM EDTA, pH 8.0) in the presence of TEV protease (50 μg/mL). A second IMAC step was performed and the flow-through containing the RAP-CTD was loaded onto a HiTrap SP HP cation exchange column followed by a size exclusion chromatography step on a Superdex 75 GL 10/300 column equilibrated with NMR buffer (20 mM sodium phosphate, 0.1% trifluoroacetic acid, pH 7.4), both mounted in an Äkta Purifier System (GE Healthcare, Chicago, IL, USA). The sample was concentrated to 100 μM using an Amicon Ultra 15 mL centrifugal filter (Merck KGaA, Darmstadt, Germany).
Before the experiment, both the protein and the peptide were dialyzed (277 K, two dialysis steps) in the same preparation of NMR buffer (20 mM sodium phosphate, 0.1% trifluoroacetic acid, pH 7.4), using a Pur-A-Lyzer (Sigma-Aldrich, Burlington, MA, USA) and a Micro Float-A-Lyzer (Spectrum Laboratories, San Francisco, CA, USA) respectively. The chemical shift assignment of RAP74-CTD was reported previously (BMRB code 27288). Averaged ^1H and ^15N chemical shift perturbations (CSPs) were calculated as:2 ΔδAV=(Δδ1H)^2+1/5Δδ15N^2
Dissociation constants, KD, and averaged CSP amplitude, Δδmax, for δ, δstpl, γ and γstpl peptide binding to RAP74-CTD were obtained by a global fitting (nonlinear regression) of the 10% peaks with the largest averaged CSPs to the following single-site binding model (1:1 stoichiometry):3 Δδ=Δδmax([Protein]+[Peptide]+KD)−([Protein]+[Peptide]+KD)^2−4[Protein][Peptide]/2[Protein]

Data set [1] in a line: Peptide stability in human serum. The format is in vitro ADME. Conditions: for peptide in human serum over time, mean / remaining at 0.08 h, 300 μM / remaining at 0.25 h, 300 μM / remaining at 0.5 h, 300 μM / remaining at 1 h, 300 μM / remaining at 4 h, 300 μM / remaining at 6 h, 300 μM / remaining at 8 h, 300 μM / remaining at 24 h, 300 μM: SD, human serum, mean; for peptide in human serum over time, mean: in % (unit assumed); for remaining at 0.08 h, 300 μM: Time 0.08 (time unit inferred); for remaining at 0.08 h, 300 μM / remaining at 0.25 h, 300 μM / remaining at 0.5 h, 300 μM / remaining at 1 h, 300 μM / remaining at 4 h, 300 μM / remaining at 6 h, 300 μM / remaining at 8 h, 300 μM / remaining at 24 h, 300 μM: read-out: peptide in human serum over time, mean; for remaining at 0.25 h, 300 μM: Time 0.25 (time unit inferred); for remaining at 0.5 h, 300 μM: Time 0.50 (time unit inferred); for remaining at 1 h, 300 μM: Time 1.00 (time unit inferred); for remaining at 4 h, 300 μM: Time 4.00 (time unit inferred); for remaining at 6 h, 300 μM: Time 6.00 (time unit inferred); for remaining at 8 h, 300 μM: Time 8.00 (time unit inferred); for remaining at 24 h, 300 μM: Time 24.00 (time unit inferred); for half-life at 300 μM: human serum (Sigma-Aldrich), 1.5 mM peptide in 20 mM sodium phosphate pH 7.4 diluted 1:9, final 300 μM, 310 K, 24 h, methanol precipitation, HPLC peak area of intact peptide vs t = 0, three independent replicates. How it is done:
Supplementary Figure 2 | Stability in human serum and internalization in human cells of peptides (P3-7)3 and (P3-7)3 Ctrl. a Human serum stability assay of peptides (P3-7)3, (P3-7)3 Ctrl and Angiopep-2 (sequence:
, a positive control for this assay 1), measured at increasing time points by monitoring the area of the HPLC peak corresponding to the intact peptide over the area of the same peak at t = […]
Peptide stability in human serum
1.5 mM solutions of the P(3-7)3, P(3-7)3 Ctrl and Angiopep-2 peptides were prepared as detailed above in 20 mM sodium phosphate, pH 7.4 and diluted in human serum (Sigma-Aldrich, Burlington, MA, USA) (1:9 dilution) to a final concentration of 300 μM. The incubation was performed at 310 K for 24 h, taking aliquots of 50 μL at several time points.
These samples were treated with 400 μL of methanol to precipitate the serum proteins and centrifuged for 30 min at 277 K. The supernatant was filtered and analyzed by HPLC to calculate the percentage of intact peptide in the sample. HPLC chromatograms were obtained on an Agilent 1260 Infinity II system with a PDA detector, with an Agilent Poroshell 120-EC18 (50 x 3 mm x 2.7 μm) column. The flow rate was 1 mL min-1 and acetonitrile (1% TFA) and water (1% TFA) were used as solvents, with 4 minute linear gradients from 5 % to 95 % of acetonitrile thermostated at 313 K. […]

[2] abbreviates: Time 0.00 (time unit not given).

Like-named read-outs stand apart in the source and are kept apart here. Starred links: 1 amine or outer side, 2 acyl side, 3 side chain; linkers in the order of their positions; H or OH if unused. Positions of bridges follow the written chain, without caps; N, C: chain ends. Non-standard residues stand in square brackets, D forms with d. Residues, ends and D or L forms follow the SMILES beside them. No end group written: not given here. ξ: configuration not given here. ξαMeNle(6-ylidene) = CC(CCCC=[*:3])(N[*:1])C(=O)[*:2]

By Kd is commonly meant the free concentration of one partner at which half of the binding sites on the other are occupied at equilibrium, for simple one-to-one binding. As to KKPGASASWAQLFQEEQAAQAAKK [γCtrl], at RAP74-CTD (lower bound), the Kd is > 1000 µM.

Usually half-life stands for how long it takes for the measured level to halve. High values mean slow decline, low ones rapid decline. For “KKPGASAAAAQAAQAAQAAQAAQAAQAAKKY [(P3-7)3 Ctrl]”, the “peptide in human serum over time, mean” value in data set [1] (setting [2]) is on record as 100.26. Also, in data set [1], the remaining at 0.08 h, 300 μM was found to be 96.4%; the remaining at 0.25 h, 300 μM was 97.3%; the remaining at 0.5 h, 300 μM amounted to 114%; the remaining at 1 h, 300 μM was found to be 115%. For the same compound, in data set [1], the remaining at 4 h, 300 μM amounted to 94.5%; the remaining at 6 h, 300 μM turned out to be 115%; the remaining at 8 h, 300 μM came to 98.4%; the remaining at 24 h, 300 μM was 110%. Moreover, the half-life at 300 μM in data set [1] was > 24 h.

Take “KKPGASLAALQALQALQALQALQAAQAAKKY [(P3-7)3]”: at RAP74-CTD (lower bound), the Kd is > 1000 µM. In addition, in data set [1], the remaining at 0.08 h, 300 μM was found to be 113%; the remaining at 0.25 h, 300 μM is 120%; the remaining at 6 h, 300 μM came to 103%; the remaining at 8 h, 300 μM was 86.3%. In addition, the half-life at 300 μM in data set [1] is > 24 h. Besides, the “peptide in human serum over time, mean” value in data set [1] (Time 0.50 (time unit not given)) was 137.50. For the same compound, the “peptide in human serum over time, mean” value in data set [1] (Time 1.00 (time unit not given)) worked out at 122.97. Also, the “peptide in human serum over time, mean” value in data set [1] (Time 4.00 (time unit not given)) stood at 139.36. Further, in data set [1] (Time 24.00 (time unit not given)), the “peptide in human serum over time, mean” value worked out at 128.28.

With KKPGASLSWLQLFQEEQAAQAAKK [γ], on RAP74-CTD, the “KD range in words” value is recorded as “mid-micromolar range”.

As for KKPGASAAAAQEAQLAQLAQELQAAQAAKKY [δctrl], on RAP74-CTD (lower bound), the Kd was > 1000 µM.

As to KKPGASLAALQELQLLQLLQELQAAQAAKKY [δ], the Kd at RAP74-CTD (20 mM sodium phosphate, 0.1% TFA, global fit of 10% peaks with largest CSPs, 1:1 model, error by Monte-Carlo) came to 131 ± 20 µM.

As for `C[C@@H](O)[C@H](N)C(=O)N[C@@H](Cc1ccccc1)C(=O)N[C@@H](Cc1ccccc1)C(=O)N[C@@H](Cc1ccc(O)cc1)C(=O)NCC(=O)NCC(=O)N[C@@H](CO)C(=O)N[C@@H](CCCNC(=N)N)C(=O)NCC(=O)N[C@@H](CCCCN)C(=O)N[C@@H](CCCNC(=N)N)C(=O)N[C@@H](CC(N)=O)C(=O)N[C@@H](CC(N)=O)C(=O)N[C@@H](Cc1ccccc1)C(=O)N[C@@H](CCCCN)C(=O)N[C@H](C(=O)N[C@@H](CCC(=O)O)C(=O)N[C@@H](CCC(=O)O)C(=O)N[C@@H](Cc1ccc(O)cc1)C(=O)O)[C@@H](C)O` [Angiopep-2, reference compound], the “peptide in human serum over time, mean” value in data set [1] (setting [2]) was 100.01. Further, in data set [1], the remaining at 0.08 h, 300 μM is 52%; the remaining at 0.25 h, 300 μM stood at 72.6%; the remaining at 0.5 h, 300 μM is 32.2%; the remaining at 1 h, 300 μM amounted to 73.3%. In addition, in data set [1], the remaining at 4 h, 300 μM worked out at 24.9%; the remaining at 6 h, 300 μM is 16.7%; the remaining at 8 h, 300 μM came to 18.3%; the remaining at 24 h, 300 μM stood at 22.5%.

As for “SAAASSSWHTLFTAEEGQLYG [WHTLF, reference compound]”, the Kd on RAP74-CTD (lower bound) is > 1000 µM.

`CC(C)C[C@@H]1NC(=O)[C@H](CCC(N)=O)NC(=O)C(C)(NC(=O)[C@H](Cc2c[nH]c3ccccc23)NC(=O)[C@H](CO)NC(=O)[C@H](C)NC(=O)[C@H](CO)NC(=O)[C@H](C)NC(=O)CNC(=O)[C@@H]2CCCN2C(=O)[C@H](CCCCN)NC(=O)[C@@H](N)CCCCN)CCCC=CCCCC(C)(C(=O)N[C@@H](CCC(=O)O)C(=O)N[C@@H](CCC(=O)O)C(=O)N[C@@H](CCC(N)=O)C(=O)N[C@@H](C)C(=O)N[C@@H](C)C(=O)N[C@@H](CCC(N)=O)C(=O)N[C@@H](C)C(=O)N[C@@H](C)C(=O)N[C@@H](CCCCN)C(=O)N[C@@H](CCCCN)C(=O)O)NC(=O)[C@H](Cc2ccccc2)NC1=O` (stereo partly drawn) [γStpl]: at RAP74-CTD, the “KD range in words” value is “mid-micromolar range”.

As for `CC(C)C[C@@H]1NC(=O)[C@H](CCC(N)=O)NC(=O)C(C)(NC(=O)[C@H](CCC(=O)O)NC(=O)[C@H](CCC(N)=O)NC(=O)[C@H](C)NC(=O)[C@H](C)NC(=O)[C@H](C)NC(=O)[C@H](C)NC(=O)[C@H](CO)NC(=O)[C@H](C)NC(=O)CNC(=O)[C@@H]2CCCN2C(=O)[C@H](CCCCN)NC(=O)[C@@H](N)CCCCN)CCCC=CCCCC(C)(C(=O)N[C@@H](CC(C)C)C(=O)N[C@@H](C)C(=O)N[C@@H](CCC(N)=O)C(=O)N[C@@H](CCC(=O)O)C(=O)N[C@@H](CC(C)C)C(=O)N[C@@H](CCC(N)=O)C(=O)N[C@@H](C)C(=O)N[C@@H](C)C(=O)N[C@@H](CCC(N)=O)C(=O)N[C@@H](C)C(=O)N[C@@H](C)C(=O)N[C@@H](CCCCN)C(=O)N[C@@H](CCCCN)C(=O)N[C@@H](Cc2ccc(O)cc2)C(=O)O)NC(=O)[C@H](C)NC1=O` (stereo partly drawn) [δStpl] (H-KKPGASAAAAQE[ξαMeNle(6-ylidene)]QLA[ξαMeNle(6-ylidene)]LAQELQAAQAAKKY-OH; staple 13-17; N-terminus and C-terminus assumed), the “KD range in words” value on RAP74-CTD was “millimolar range”.
